Test results taken from PMC6625372 (Frontiers in Oncology, 2019).

Tests used:
[1] = tested on: CLB-BAR; test: Apoptosis analysis, cleaved PARP immunoblot; format: cell-based; conditions: 100 nM, 24 h
[2] = tested on: CLB-GE; test: Apoptosis analysis, cleaved PARP immunoblot; format: cell-based; conditions: 100 nM, 24 h
[3] = tested on: SK-N-AS (11q-del, K-RasQ61K); test: Apoptosis analysis, cleaved PARP immunoblot; format: cell-based; conditions: 100 nM, 24 h
[4] = tested on: CLB-PE; test: Apoptosis analysis, cleaved PARP immunoblot; format: cell-based; conditions: 100 nM, 24 h
Protocol: (§1) Supplementary Figure 3. Investigation of apoptosis in wild type neuroblastoma cell lines when treated with alectinib. […] Cell lysates were immunoblotted for PARP and ERK (employed as loading control). […] Three independent experiments were performed.

[5] = tested on: IMR-32; test: Apoptosis analysis, cleaved PARP immunoblot; format: cell-based; conditions: IMR-32, 100 nM, 24 h
Protocol: as §1

[6] = tested on: CLB-BAR cells; test: Neuroblastoma xenograft mouse model with tumor immunohistochemistry; format: in vivo, BALB/cAnNRj-Foxn1nu mice; conditions: for CD31 (vascularization) in tumors / Ki-67 positivity in tumors, analysis by Ilastik / cleaved caspase positive apoptotic cells in tumors vs vehicle / phospho-histone H3 in tumors vs vehicle / Ki-67 manual analysis, lower median when compared to vehicle (95% CI): day 14; for CD31 (vascularization) in tumors / Ki-67 positivity in tumors, analysis by Ilastik / cleaved caspase positive apoptotic cells in tumors vs vehicle / phospho-histone H3 in tumors vs vehicle: alectinib 20 mg/kg, crizotinib 80 mg/kg once daily; for Ki-67 manual analysis, lower median when compared to vehicle (95% CI): counts normalized against vehicle, 4 independent investigators
Protocol: Results for repotrectinib will be presented elsewhere. […] Tumor volume was measured by calipers every second day and calculated by the following equation: V = (π/6) × L × W^2 (V, volume; L, longest; W, width).
At the end of the experiment xenograft tumors (n = 5 for each tumor category) were harvested and fixed in 4% paraformaldehyde for 72 h. Following fixation, the tumors were imbedded in paraffin blocks and sectioned in […] slices with a manual microtome. Heat-induced epitope retrieval (HIER), using citrate buffer 0.01 M, pH 6, was performed before staining. HIER was achieved through a sequence where citrate buffer, containing the slides, was brought up to boiling, sub-boiled for 5 min following 10 s of intermediate cooling. The sequence was performed three times with cooling (5 min) in between. Following washing in distillated H2O (3 × 5 min), the slides were immerged in 3% H2O2 for 15 min and then washed in tris-buffered saline-Tween 20 (TBST) for 5 min. A hydrophobic pen was used to set a margin encircling the samples on the slides. […] The slides were incubated for 48 h in a cold room after being covered with antibody diluent. […] Additional washing steps in TBST (3 × 5 min) were carried out. […] The slides were counterstained with Mayer's hematoxylin solution (Sigma-Aldrich SLBK8961V), dehydrated and mounted.
Hamamatsu NanoZoomer-SQ Digital slide scanner (C13140-01) with a x20 (NA 0.75) objective was used to obtain digital images of the slides. Slides were randomly blinded to the investigator. For each of the blinded slides, a representative 1 mm^2 area was selected employing NanoZoomer Digital Pathology viewer. The slide-image was cropped, containing the area of interest, and saved, as a TIF-file at × 20 resolution. The saved TIF-files were cropped, using ImageJ (Fiji) ([44]), into merely encompassing the 1 mm^2 area of interest.
The 6–7 images were then uploaded into Ilastik ([45]), an interactive machine-learning toolkit, and used as a learning foundation for the software (see program code, Supplementary Data Sheet 3). Once the software analyzed the learning images, the whole batches were processed in Ilastik. The output was then transferred to ImageJ where a macro (see program code, Supplementary Data Sheet 2) calculated the area of staining. The pixel size acquired from NanoZoomer Digital Pathology viewer was accounted for in the macro. Ki-67 immunohistochemistry was also analyzed manually. […] Ninety five percent confidence intervals for the difference between median were retrieved with GraphPad.
GraphPad Prism 7.0 was used for statistical analysis. A non-parametric test was performed acquiring P-values by applying a Mann-Whitney test.

[7] = tested on: CLB-BAR; test: Cell cycle analysis (DAPI, NucleoCounter NC-3000); conditions: 24 h, 75 and 150 nM
[8] = tested on: CLB-GE; test: Cell cycle analysis (DAPI, NucleoCounter NC-3000); conditions: 24 h, 75 and 150 nM
[9] = tested on: SK-N-AS; test: Cell cycle analysis (DAPI, NucleoCounter NC-3000); conditions: SK-N-AS control cell line, 24 h, 75 and 150 nM

| SMILES | cleaved PARP levels [1] | cleaved PARP levels [2] | cleaved PARP levels [3] | cleaved PARP levels [4] | cleaved PARP levels [5] | growth of neuroblastoma xenografts ([6]; 20 mg/kg bodyweight once daily, 14 days, vs vehicle) | body weight and side effects during treatment ([6]; 20 mg/kg once daily, 14 days) | xenograft tumor volume compared with vehicle ([6]; 20 mg/kg once daily, day 6 p = 0.0222, day 8 p < 0.0001, day 14 p = 0.0072) | tumor growth inhibition compared with crizotinib ([6]; alectinib 20 mg/kg vs crizotinib 80 mg/kg once daily, 14 days) | CD31 (vascularization) in tumors [6] | Ki-67 positivity in tumors, analysis by Ilastik [6] | cleaved caspase positive apoptotic cells in tumors vs vehicle [6] | phospho-histone H3 in tumors vs vehicle [6] | Ki-67 manual analysis, lower median when compared to vehicle (95% CI) [6] | cell cycle progression, G1 accumulation [7] | cell cycle progression, G1 accumulation [8] | cell cycle progression, G1 accumulation [9] |
| --- | --- | --- | --- | --- | --- | --- | --- | --- | --- | --- | --- | --- | --- | --- | --- | --- | --- |
| CCc1cc2c(cc1N1CCC(N3CCOCC3)CC1)C(C)(C)c1[nH]c3cc(C#N)ccc3c1C2=O [alectinib] | significant increase of cleaved PARP levels | significant increase of cleaved PARP levels | no difference was observed | no difference was observed | no difference was observed | effectively abrogated growth | No difference in body weight or obvious side effects | significantly reduced | more effective than with crizotinib | significant increase | non-significant decrease | significantly lower | significant decrease | 0.46 (95% CI 0.32–0.52) | increased G1 accumulation | increased G1 accumulation | not observed |
| C[C@@H](Oc1cc(-c2cnn(C3CCNCC3)c2)cnc1N)c1c(Cl)ccc(F)c1Cl [crizotinib] |  |  |  |  |  |  |  |  |  | significant increase | modest, but significant reduction | non-significant decrease | not observed | 0.49 (95% CI 0.47–0.50) |  |  |  |
